The test system of this series is adult southern chinch bugs. The series is described as follows: LC-50 of bifenthrin on chinch bug populations, dipped St. Augustine grass stolons in Petri dishes. Format: in vivo, Blissus insularis. Particulars: about 24 hours at about 28° C. From the text:
Developing Chinch Bug Resistance to Bifenthrin (Synthetic Pyrethroid) Serial dilutions of bifenthrin were made from Talstar Flowable 7.9% AI (FMC, Philadelphia, Pa.). Freshly harvested St. Augustine grass stolons (about 10 cm long) were dipped into the dilutions and allowed to air dry. The stolons were placed individually into Petri dishes (15 cm diameter) containing moist filter paper to maintain high humidity. Twenty adult southern chinch bugs were placed into each Petri dish and held for about 24 hours at about 28° C. Sample sizes of adults tested ranged from 200 (20 each at 10 dose levels) to 480 (20 each at 24 dose levels) for each location to estimate LC-50 for that location. Different numbers of adults tested per location depended on availability of adults plus variability noted in testing. Since the objective of this study was to estimate LC-50 values, doses expected to give 25 to 75% mortality for best LC-50 were used. Mortality was defined as virtually no movement by an adult during a 5 minute observation period through a 5× large magnifying lens. The no movement criterion was used to avoid ambiguities of comatose, unable to stand, moribund, etc.

Molecules are shown by their SMILES.

As for `Cc1c(COC(=O)[C@@H]2[C@H](/C=C(\Cl)C(F)(F)F)C2(C)C)cccc1-c1ccccc1` (racemic) [bifenthrin], the LC-50 by setting is: (chinch bugs from Belle Glade, control problem in the field: No) 2.6 ppm; (chinch bugs from Clermont, control problem in the field: Yes) 78.7 ppm; (chinch bugs from Daytona Beach, control problem in the field: Yes) 243.3 ppm; (chinch bugs from Fort Pierce, control problem in the field: No) 2.8 ppm; (chinch bugs from Gainesville, control problem in the field: No) 10.6 ppm; (chinch bugs from Kendall Lakes, control problem in the field: No) 9.3 ppm. Moreover, the LC-50 by setting is: (chinch bugs from Key Largo, control problem in the field: Yes) 148.2 ppm; (chinch bugs from Lithia, control problem in the field: No) 5.4 ppm; (chinch bugs from Orlando, control problem in the field: No) 2.3 ppm; (chinch bugs from Ormond Beach, control problem in the field: Yes) 698.8 ppm; (chinch bugs from Palm Coast, control problem in the field: Yes) 1,693 ppm; (chinch bugs from Palmetto, control problem in the field: Yes) 493.6 ppm. Moreover, the LC-50 (chinch bugs from Royal Palm Beach, control problem in the field: No) is given as 7.3 ppm; the LC-50 (chinch bugs from Sarasota, control problem in the field: Yes) was 89.2 ppm; the LC-50 (chinch bugs from Spring Hill, control problem in the field: Yes) is 159.3 ppm; the LC-50 (chinch bugs from Tamarac, control problem in the field: No) was 9.7 ppm.
